Assay results reported in PubChem BioAssay (NCI).
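Step 1: Grow cells in 96-well plates. Step 2: Expose to compound for 48 hours at 5 concentrations. Step 3: Interpolate endpoints linearly; if unreached, use highest concentration. At the GI50, growth is halved. At the TGI there is no net growth.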

Assays:
Assay in all cases: NCI tumour cell line growth inhibition, 48 h
HCC-2998 colon = system: HCC-2998 colon
COLO 205 colon = system: COLO 205 colon
A498 renal = system: A498 renal
SK-MEL-28 melanoma = system: SK-MEL-28 melanoma
NCI-H522 lung = system: NCI-H522 lung
ACHN renal = system: ACHN renal
SR leukemia = system: SR leukemia
NCI-H460 lung = system: NCI-H460 lung

| Structure (SMILES) | GI50 (HCC-2998 colon) | TGI (HCC-2998 colon) | GI50 (COLO 205 colon) | TGI (COLO 205 colon) | GI50 (A498 renal) | TGI (A498 renal) | GI50 (SK-MEL-28 melanoma) | TGI (SK-MEL-28 melanoma) | GI50 (NCI-H522 lung) | TGI (NCI-H522 lung) | GI50 (ACHN renal) | TGI (ACHN renal) | GI50 (SR leukemia) | TGI (SR leukemia) | GI50 (NCI-H460 lung) | TGI (NCI-H460 lung) |
| --- | --- | --- | --- | --- | --- | --- | --- | --- | --- | --- | --- | --- | --- | --- | --- | --- |
| Cn1ccnc1C(=O)/C=C/c1ccc(CC(=O)Nc2ccc(S(F)(F)(F)(F)F)cc2)cc1 | 2.92 µM | 5.3 µM | 3.08 µM | 6.66 µM | 3.12 µM | 6.14 µM | 2.83 µM | 5.88 µM | 3.43 µM | 6.91 µM | 2.45 µM | 4.82 µM | 0.53 µM | 1.86 µM | 2.25 µM | 7.58 µM |
| COc1ccc(C(=O)/C=C/c2c(C(F)(F)F)nc3sccn23)cc1OC | 5.07 µM | 97.5 µM | 4.56 µM | 72.4 µM | 7.58 µM | 54.9 µM | 8.48 µM | > 100 µM | 2.91 µM | 80.7 µM | 5.1 µM | > 100 µM | 0.493 µM | > 100 µM | 1.94 µM | 6.65 µM |
| Cc1nc2sc(C(=O)Nc3cccc4ccccc34)c(N)c2cc1C(=O)/C=C/c1ccccc1 | 0.852 µM | 1.63 µM | 0.957 µM | 2.64 µM | 0.337 µM | 1.87 µM | 0.667 µM | 5.91 µM | 0.215 µM | 2.11 µM | 0.304 µM | 1.25 µM | 0.164 µM | > 10.1 µM | 0.411 µM | 2.34 µM |
| C=CC1=C[C@@H]2[C@@H]3O[C@]4(CC[C@H](O4)[C@@H](C)C[C@@H](O)C3=O)C[C@H](O)C3=NCC[C@@]32CC1 | < 0.00333 µM | < 0.00333 µM | < 0.00333 µM | < 0.00333 µM | < 0.00333 µM | < 0.00333 µM | < 0.00333 µM | < 0.00333 µM | < 0.00333 µM | 0.00353 µM | < 0.00333 µM | < 0.00333 µM | < 0.00333 µM | > 33.3 µM | < 0.00333 µM | < 0.00333 µM |
| CCc1cccc2c3c(sc12)C(c1ccc(Cl)cc1)C(C#N)=C(N)O3 (stereo unspecified) | 1.32 µM | 7.42 µM | 0.81 µM | 6.27 µM | 0.224 µM | 1.52 µM | 2.06 µM | 19.3 µM | 0.338 µM | 4.39 µM | 0.622 µM | 14.3 µM | 0.414 µM | 31.8 µM | 0.414 µM | 3.01 µM |
| O=C(/C=C/c1cccs1)c1ccc(Nc2nc(Nc3ccc(F)cc3)nc(Nc3ccc(F)cc3)n2)cc1 | 15.8 µM | > 100 µM | 12.5 µM | 80.2 µM | 9.24 µM | > 100 µM | 18.2 µM | 39.1 µM | 20.5 µM | 46.4 µM | 86.5 µM | > 100 µM | 14.7 µM | 60.1 µM | 20.4 µM | > 100 µM |
| COc1ccc(C(=O)COc2cccc(/C=C3\CSc4ccccc4C3=O)c2)cc1 | 1.82 µM | 3.39 µM | 2.93 µM | 6.95 µM | 16.5 µM | 32 µM | 2.04 µM | 3.71 µM | 1.73 µM | 3.86 µM | 1.93 µM | 3.86 µM | 0.395 µM | – | 3.56 µM | 12 µM |
